Source: PMC6037046, “Structural insights into Plasmodium falciparum nicotinamide mononucleotide adenylyltransferase: oligomeric assembly” (Memórias do Instituto Oswaldo Cruz, 2018)

How the values were obtained:
[1] = biological target: 6 x His-Plasmodium falciparum nicotinamide mononucleotide adenylyltransferase (PfNMNAT) recombinant protein (Plasmodium falciparum (FCB2 strain gDNA; ORF identified in strain 3D7)) (UniProt Q8IE38); assay: native gel or EMSA; native PAGE of IMAC eluate (four gels of 6, 8, 10, 12 %T) with Ferguson plot (-Log Kr vs Log MW) against standard proteins
6 x His-PfNMNAT = biological target: T1, 6 x His-PfNMNAT (Plasmodium falciparum, UniProt Q8IE38); assay: RP-HPLC of NAD formed (direct assay); also ADH-coupled assay at […] nm; format: biochemical; conditions: 1.25 mM NMN, 1.25 mM ATP, 10 mM MgCl2, 25 mM HEPES/KOH pH 7.4, 37 C
T1 construct: gene PF3D7_1327600; full ORF in pET100/D-TOPO, N-terminal 6xHis tag kept, E. coli Codon Plus (DE3) RIL, ~28 kDa
T1 sequence (Q8IE38 1-204): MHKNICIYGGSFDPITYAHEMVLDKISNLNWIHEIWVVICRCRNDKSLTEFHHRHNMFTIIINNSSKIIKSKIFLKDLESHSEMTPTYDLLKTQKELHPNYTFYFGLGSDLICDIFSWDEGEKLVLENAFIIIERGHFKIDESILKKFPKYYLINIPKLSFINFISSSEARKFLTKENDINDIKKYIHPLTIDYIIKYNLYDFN

| stoichiometry N [1] | Compound | RP-HPLC of NAD formed (direct assay); also ADH-coupled assay at 340 nm (6 x His-PfNMNAT) |
| --- | --- | --- |
| 2 | 6 x His-Plasmodium falciparum nicotinamide mononucleotide adenylyltransferase (PfNMNAT) recombinant protein (from UniProt Q8IE38 1-204) (enzyme) | – |
| – | NC(=O)c1ccc[n+]([C@@H]2O[C@H](COP(=O)(O)O)[C@@H](O)[C@H]2O)c1 [NMN, nicotinamide mononucleotide] | direct enzymatic assays that measured NAD synthesis from NMN and ATP |
| – | Nc1ncnc2c1ncn2[C@@H]1O[C@H](COP(=O)(O)OP(=O)(O)OP(=O)(O)O)[C@@H](O)[C@H]1O [ATP] | direct enzymatic assays that measured NAD synthesis from NMN and ATP |
